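Dose response: 5 concentrations. Exposure: 48 h. Format: 96-well plates. Endpoint: linear interpolation; highest concentration if not reached. GI50 = concentration required for 50% inhibition of growth. TGI is the concentration that stops growth completely.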
Columns and labels:
Assay in all cases: growth of human tumour cells (NCI), 48 h
MCF7 breast = test system: MCF7 breast
UACC-257 melanoma = test system: UACC-257 melanoma
EKVX NSCLC = test system: EKVX NSCLC
ACHN renal = test system: ACHN renal
SN12C renal = test system: SN12C renal
SF-268 CNS = test system: SF-268 CNS
IGROV1 ovarian = test system: IGROV1 ovarian
SNB-19 CNS = test system: SNB-19 CNS
T-47D breast = test system: T-47D breast
HS 578T breast = test system: HS 578T breast
SK-MEL-2 melanoma = test system: SK-MEL-2 melanoma
OVCAR-4 ovarian = test system: OVCAR-4 ovarian
MALME-3M melanoma = test system: MALME-3M melanoma
TK-10 renal = test system: TK-10 renal
NCI-H522 lung = test system: NCI-H522 lung
SF-539 CNS = test system: SF-539 CNS
HCT-116 colon = test system: HCT-116 colon
SR leukemia = test system: SR leukemia
OVCAR-5 ovarian = test system: OVCAR-5 ovarian
A498 renal = test system: A498 renal
HT29 colon = test system: HT29 colon
SW-620 colon = test system: SW-620 colon
M14 melanoma = test system: M14 melanoma
HCT-15 colon = test system: HCT-15 colon
K-562 leukemia = test system: K-562 leukemia
SK-MEL-5 melanoma = test system: SK-MEL-5 melanoma
HL-60(TB) leukemia = test system: HL-60(TB) leukemia
NCI-H226 lung = test system: NCI-H226 lung
HCC-2998 colon = test system: HCC-2998 colon
MDA-MB-435 = test system: MDA-MB-435
HOP-62 NSCLC = test system: HOP-62 NSCLC
DU-145 prostate = test system: DU-145 prostate
SK-OV-3 ovarian = test system: SK-OV-3 ovarian
NCI-H23 lung = test system: NCI-H23 lung
CCRF-CEM leukemia = test system: CCRF-CEM leukemia
PC-3 prostate = test system: PC-3 prostate
A549 NSCLC = test system: A549 NSCLC
MOLT-4 leukemia = test system: MOLT-4 leukemia
SNB-75 CNS = test system: SNB-75 CNS
COLO 205 colon = test system: COLO 205 colon
RXF 393 renal = test system: RXF 393 renal
SF-295 CNS = test system: SF-295 CNS
NCI/ADR-RES ovarian = test system: NCI/ADR-RES ovarian
UO-31 renal = test system: UO-31 renal
HOP-92 NSCLC = test system: HOP-92 NSCLC
KM12 colon = test system: KM12 colon
MDA-MB-231 breast = test system: MDA-MB-231 breast
BT-549 breast = test system: BT-549 breast
786-0 renal = test system: 786-0 renal
OVCAR-3 ovarian = test system: OVCAR-3 ovarian
NCI-H460 lung = test system: NCI-H460 lung
LOX IMVI melanoma = test system: LOX IMVI melanoma
U251 CNS = test system: U251 CNS
RPMI-8226 leukemia = test system: RPMI-8226 leukemia
CAKI-1 renal = test system: CAKI-1 renal
SK-MEL-28 melanoma = test system: SK-MEL-28 melanoma
OVCAR-8 ovarian = test system: OVCAR-8 ovarian

With `O=C1CC[C@H](N2C(=O)c3cccc4c(Cc5ccc(CN6CCOCC6)cc5)ccc2c34)C(=O)N1` the GI50 (MCF7 breast) was 23.7 µM, the TGI (MCF7 breast) was over 100 µM and the GI50 (UACC-257 melanoma) was 22.5 µM. For the same compound, the TGI (UACC-257 melanoma) was over 100 µM, the GI50 (EKVX NSCLC) was 17.9 µM and the TGI (EKVX NSCLC) was over 100 µM. For the same compound, the GI50 (ACHN renal) was 78.6 µM, the TGI (ACHN renal) was over 100 µM and the GI50 (SN12C renal) was 63.4 µM. For the same compound, the TGI (SN12C renal) was over 100 µM, the GI50 (SF-268 CNS) was over 100 µM and the TGI (SF-268 CNS) was over 100 µM. The GI50 (IGROV1 ovarian) was over 100 µM, the TGI (IGROV1 ovarian) was over 100 µM and the GI50 (SNB-19 CNS) was over 100 µM. It also gave a TGI (SNB-19 CNS) of over 100 µM, a GI50 (T-47D breast) of 10.7 µM and a TGI (T-47D breast) of over 100 µM. It also gave a GI50 (HS 578T breast) of 46.8 µM, a TGI (HS 578T breast) of over 100 µM and a GI50 (SK-MEL-2 melanoma) of over 100 µM. For the same compound, the TGI (SK-MEL-2 melanoma) was over 100 µM, the GI50 (OVCAR-4 ovarian) was 21.9 µM and the TGI (OVCAR-4 ovarian) was over 100 µM. It also gave a GI50 (MALME-3M melanoma) of 30 µM, a TGI (MALME-3M melanoma) of over 100 µM and a GI50 (TK-10 renal) of over 100 µM. For the same compound, the TGI (TK-10 renal) was over 100 µM, the GI50 (NCI-H522 lung) was 12.3 µM and the TGI (NCI-H522 lung) was over 100 µM. The GI50 (SF-539 CNS) was over 100 µM, the TGI (SF-539 CNS) was over 100 µM and the GI50 (HCT-116 colon) was 33.6 µM. It also gave a TGI (HCT-116 colon) of over 100 µM, a GI50 (SR leukemia) of 4.03 µM and a TGI (SR leukemia) of over 100 µM. For the same compound, the GI50 (OVCAR-5 ovarian) was over 100 µM, the TGI (OVCAR-5 ovarian) was over 100 µM and the GI50 (A498 renal) was over 100 µM. For the same compound, the TGI (A498 renal) was over 100 µM, the GI50 (HT29 colon) was 28.9 µM and the TGI (HT29 colon) was over 100 µM. It also gave a GI50 (SW-620 colon) of over 100 µM, a TGI (SW-620 colon) of over 100 µM and a GI50 (M14 melanoma) of 62 µM. The TGI (M14 melanoma) was over 100 µM, the GI50 (HCT-15 colon) was 41.8 µM and the TGI (HCT-15 colon) was over 100 µM. The GI50 (K-562 leukemia) was 10.2 µM, the TGI (K-562 leukemia) was over 100 µM and the GI50 (SK-MEL-5 melanoma) was 7.32 µM. The TGI (SK-MEL-5 melanoma) was 26.4 µM, the GI50 (HL-60(TB) leukemia) was 24.1 µM and the TGI (HL-60(TB) leukemia) was over 100 µM. It also gave a GI50 (NCI-H226 lung) of 11.7 µM, a TGI (NCI-H226 lung) of over 100 µM and a GI50 (HCC-2998 colon) of over 100 µM. It also gave a TGI (HCC-2998 colon) of over 100 µM, a GI50 (MDA-MB-435) of 36.9 µM and a TGI (MDA-MB-435) of over 100 µM. For the same compound, the GI50 (HOP-62 NSCLC) was 52.3 µM, the TGI (HOP-62 NSCLC) was over 100 µM and the GI50 (DU-145 prostate) was over 100 µM. It also gave a TGI (DU-145 prostate) of over 100 µM, a GI50 (SK-OV-3 ovarian) of over 100 µM and a TGI (SK-OV-3 ovarian) of over 100 µM. The GI50 (NCI-H23 lung) was 29.4 µM, the TGI (NCI-H23 lung) was over 100 µM and the GI50 (CCRF-CEM leukemia) was 55.9 µM. For the same compound, the TGI (CCRF-CEM leukemia) was over 100 µM, the GI50 (PC-3 prostate) was 40.4 µM and the TGI (PC-3 prostate) was over 100 µM. For the same compound, the GI50 (A549 NSCLC) was 52.6 µM, the TGI (A549 NSCLC) was over 100 µM and the GI50 (MOLT-4 leukemia) was 27.6 µM. For the same compound, the TGI (MOLT-4 leukemia) was over 100 µM, the GI50 (SNB-75 CNS) was 2.56 µM and the TGI (SNB-75 CNS) was over 100 µM. The GI50 (COLO 205 colon) was 45.8 µM, the TGI (COLO 205 colon) was over 100 µM and the GI50 (RXF 393 renal) was 2.45 µM. The TGI (RXF 393 renal) was over 100 µM, the GI50 (SF-295 CNS) was 19.3 µM and the TGI (SF-295 CNS) was over 100 µM. For the same compound, the GI50 (NCI/ADR-RES ovarian) was 42 µM, the TGI (NCI/ADR-RES ovarian) was over 100 µM and the GI50 (UO-31 renal) was 48.7 µM. The TGI (UO-31 renal) was over 100 µM, the GI50 (HOP-92 NSCLC) was 8.14 µM and the TGI (HOP-92 NSCLC) was over 100 µM. The GI50 (KM12 colon) was 79 µM, the TGI (KM12 colon) was over 100 µM and the GI50 (MDA-MB-231 breast) was 79.5 µM. It also gave a TGI (MDA-MB-231 breast) of over 100 µM, a GI50 (BT-549 breast) of 17.3 µM and a TGI (BT-549 breast) of over 100 µM. It also gave a GI50 (786-0 renal) of over 100 µM, a TGI (786-0 renal) of over 100 µM and a GI50 (OVCAR-3 ovarian) of 65.6 µM. For the same compound, the TGI (OVCAR-3 ovarian) was over 100 µM, the GI50 (NCI-H460 lung) was 35.2 µM and the TGI (NCI-H460 lung) was over 100 µM. For the same compound, the GI50 (LOX IMVI melanoma) was 26.1 µM, the TGI (LOX IMVI melanoma) was over 100 µM and the GI50 (U251 CNS) was 60.3 µM. The TGI (U251 CNS) was over 100 µM, the GI50 (RPMI-8226 leukemia) was 9.18 µM and the TGI (RPMI-8226 leukemia) was over 100 µM. It also gave a GI50 (CAKI-1 renal) of 62.1 µM, a TGI (CAKI-1 renal) of over 100 µM and a GI50 (SK-MEL-28 melanoma) of 75.1 µM. The TGI (SK-MEL-28 melanoma) was over 100 µM, the GI50 (OVCAR-8 ovarian) was 56.6 µM and the TGI (OVCAR-8 ovarian) was over 100 µM.
